From patent publication US8293775B2, “Benzoxazolone derivatives, processes for preparing them and their uses” (UCB Pharma, S.A., priority 2004, dated 2012)

Test system: 6-OHDA rat model
Experiment: Hemi-parkinsonian (6-OHDA lesioned) rat model: prolongation of L-DOPA-induced contralateral rotations
Conditions: second hour post administration (61-120 min); L-DOPA 50 mg/kg i.p. with vehicle (DMSO, i.p.); male Sprague-Dawley rats

## N[C@@H](Cc1ccc(O)c(O)c1)C(=O)O [L-Dopa, L-3,4-dihydroxyphenylalanine]
  total number of rotations observed with L-Dopa alone: less than 50 turns
